Measurements as given in paper PMC6009935 (Journal of Enzyme Inhibition and Medicinal Chemistry, 2017).
Where two headings read alike, the source gives them in different places.

Columns and labels:
MOR = target: T1, MOR (Rattus norvegicus, UniProt P33535); assay: Radioligand competition binding with [3H]DAMGO; conditions: for Ki: Cheng-Prusoff; for IC50: read-out: logIC50 ± S.E.M., [3H]DAMGO (MOR) (converted)
T1 construct: a: performed in rat whole brain membrane homogenates; from tissue; host or cells: Wistar rat whole brain membrane homogenate
T1 sequence (P33535 whole entry): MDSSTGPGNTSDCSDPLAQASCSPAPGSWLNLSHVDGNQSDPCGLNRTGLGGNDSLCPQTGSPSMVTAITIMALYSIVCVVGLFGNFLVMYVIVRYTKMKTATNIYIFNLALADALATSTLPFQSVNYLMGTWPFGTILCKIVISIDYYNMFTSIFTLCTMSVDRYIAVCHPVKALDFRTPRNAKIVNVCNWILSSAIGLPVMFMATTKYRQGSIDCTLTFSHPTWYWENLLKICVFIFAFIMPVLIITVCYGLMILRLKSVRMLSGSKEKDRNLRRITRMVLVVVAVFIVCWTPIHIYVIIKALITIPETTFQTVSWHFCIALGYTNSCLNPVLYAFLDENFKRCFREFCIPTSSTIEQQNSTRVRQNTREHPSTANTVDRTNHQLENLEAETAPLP
Protocol: (§1) Tris-HCl, EGTA, NaCl, MgCl2 x 6H2O, GDP, the GTP analogue GTPγS, were purchased from Sigma-Aldrich (Budapest, Hungary). Fatty acid free bovine serum albumin (BSA) was purchased from Serva (Heidelberg, Germany). Naloxone was kindly provided by the company Endo Laboratories DuPont de Nemours (Wilmington, DE, USA). HS665 was provided by Schmidhammer’s group (University of Innsbruck, Austria). […]
(§2) purchased from Tocris Bioscience (Bristol, UK).
(§3) DMSO. All compounds were stored in 1 mM stock solution at -20 °C. The radiolabelled GTP analogue, [35S]GTPγS (specific activity: 1000 Ci/mmol) were purchased from Hartmann Analytic (Braunschweig, Germany). [3H]DAMGO (specific activity: 38.8 Ci/mmol),12 [3H]IleDelt II (specific activity: 19,6 Ci/mmol), [3H]WIN55,212-2 (specific activity: 13,1 Ci/mmol) and [3H]HS665 (specific activity: 36.62 Ci/mmol),3 were radiolabeled by the Laboratory of Chemical Biology group in BRC (Szeged, Hungary).
(§4) For membrane homogenate preparations male and female Wistar rats (250-300 g body weight) and male guinea pigs (~700 g body weight, LAL/HA/BR strain) were used. Rats were housed in the local animal house of BRC (Szeged, Hungary), while guinea pigs were housed in LAB-ÁLL Bt.
(§5) (Budapest, Hungary). All the animals were kept in a temperature controlled room (21-24 °C) under a 12:12 light and dark cycle and were provided with water and food ad libitum. All housing and experiments were conducted in accordance with the European Communities Council Directives (2010/63/EU) and the Hungarian Act for the Protection of Animals in Research (XXVIII.tv. 32.§).
(§6) The total number of animals as well as their suffering was minimized.
(§7) Rat and guinea pig brain membrane homogenate preparation for binding assays Rats and guinea pigs were decapitated and their brains were quickly removed. The brains were prepared for membrane preparation as previously described,4 and partly used for binding experiments and partly were further prepared for the [35S]GTPγS binding experiments. Briefly the brains were homogenized, centrifuged in ice-cold 50 mM Tris-HCl (pH 7.4) buffer and incubated at 37 °C for 30 min in a shaking water-bath. After incubation the centrifugation was repeated as described above and the final pellet was suspended in 50 mM Tris-HCl pH 7.4 buffer containing 0.32 M sucrose, and stored at -80 °C. For the [35S]GTPγS binding experiments the final pellet of rat […]
(§8) brain membrane homogenate was suspended in ice-cold TEM (Tris-HCl, EGTA, MgCl2) and stored at -80 °C for further use.
(§9) Radioligand competition binding experiments
(§10) Aliquots of frozen rat brain membrane homogenates were centrifuged (18 000 rpm, 20 min, 4 °C) to remove sucrose and the pellets were suspended in 50 mM Tris-HCl buffer (pH 7.4). Membranes containing 0.4-0.8 mg/mL of protein were incubated in a final volume of 1 mL in the presence of unlabeled 5, 10 and 9 in increasing concentrations (10-11-10-5 M) in the presence of the appropriate radioligand in ~1 nM concentrations at certain temperature and amount of time depending on the radioligand ([3H]DAMGO and [3H]IleDelt II: 35 °C for 45 min; [3H]HS665: 30 °C, 45 min; [3H]WIN55,212-2: 30 °C for 60 min). Experiments performed with [3H]HS665 where incubated […]
(§11) more kappa receptors than the rat brain), while the rest of the radioligands were incubated together with rat whole brain membrane homogenates. Additionally, in experiments performed with […]
(§12) increasing concentrations (10-11-10-5 M) together with 50 mM Tris/HCl, 2.5 mM EGTA, 5 mM MgCl2 and 0.5 mg/mL fatty acid free BSA (pH 7.4). The level of non-specific binding was […]
(§13) binding was determined in the absence of unlabeled compounds. The reaction was terminated by rapid filtration under vacuum (Brandel M24R Cell Harvester), and washed three times with 5 mL ice-cold 50 mM Tris-HCl or 50 mM Tris/HCl, 2.5 mM EGTA, 5 mM MgCl2, 0.5 % BSA (pH 7.4) in case of [3H]WIN55,212-2. The filtration was accomplished through Whatman GF/C ([3H]DAMGO, [3H]IleDelt II and [3H]HS665) or GF/B ([3H]WIN55,212-2) glass fibers. In case of […]

[1] = target: T2, cannabinoid receptors (CBR) (Rattus norvegicus, UniProt P20272); assay: biochemical; assay type: binding
T2 construct: a: performed in rat whole brain membrane homogenates; from tissue; host or cells: Wistar rat whole brain membrane homogenate
T2 sequence (P20272 whole entry): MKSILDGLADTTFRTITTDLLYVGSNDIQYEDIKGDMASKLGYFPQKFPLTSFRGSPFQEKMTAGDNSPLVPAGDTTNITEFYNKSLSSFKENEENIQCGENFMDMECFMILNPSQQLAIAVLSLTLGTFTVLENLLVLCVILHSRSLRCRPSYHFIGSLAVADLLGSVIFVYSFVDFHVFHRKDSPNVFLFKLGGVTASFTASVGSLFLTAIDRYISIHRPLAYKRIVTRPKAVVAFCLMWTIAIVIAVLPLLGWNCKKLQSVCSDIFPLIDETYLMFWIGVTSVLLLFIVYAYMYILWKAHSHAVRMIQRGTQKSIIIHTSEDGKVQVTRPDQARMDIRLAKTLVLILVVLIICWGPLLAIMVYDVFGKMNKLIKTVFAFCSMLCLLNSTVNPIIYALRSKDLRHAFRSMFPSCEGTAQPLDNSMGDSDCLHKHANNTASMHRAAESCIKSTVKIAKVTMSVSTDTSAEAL
Protocol: as §1, §2, §3, §4, §5, §6, §7, §8, §9, §10, §11, §12, §13

[2] = test system: hypothalamic synaptosomes; assay: In vitro hypothalamic perfusion test (neurotransmitter release); assay type: cell-based, rat; conditions: 10 µM
Protocol: was evaluated with the analysis of variance followed by Dunnett’s post-hoc comparisons using GraphPad Prism 6.03 software. Statistical significance was assumed at least for P<0.05.
In vitro hypothalamic perfusion test
Hypothalamic synaptosomes were obtained from 18 male adult Sprague-Dawley rats (290-340 g), as previously described.9
Then, the synaptosome suspension was incubated at 37°C, under O2/CO2 95%/5%, pH 7.35-7.45, in Krebs-Ringer buffer (mM: NaCl 125, KCl 3, MgSO4 1.2, CaCl2 1.2, Tris-HCl 10, glucose 10, ascorbic acid 1). After the incubation period, identical aliquots of synaptosome suspension (1.24 mg protein determined by bicinchoninic acid protein assay) were layered onto 0.8 μm Millipore filters, placed into 37°C water-jacketed superfusion chambers [18 different chambers for each experiment and perfused with Krebs-Ringer buffer (0.6 mL/min)], and perfusate was collected (2 min fractions) to detect released neurotransmitters by HPLC coupled to electrochemical detection. The analytical conditions for amine identification and quantification in the perfusate fractions were selected on the basis of previous experiments performed on hypothalamus homogenate.10
The experimental protocol includes three phases: 10 min perfusion with Krebs-Ringer buffer in […]
buffer (stimulus); 8 min perfusion with Krebs-Ringer buffer for return to basal condition (post-stimulus). Perfusate was collected starting from the 8th minute of pre-stimulus. Perfusate aliquots were stored at -80°C, then lyophilized and finally suspended in 1 mL HPLC grade water for neurotransmitter quantification. Neurotransmitter release was expressed as mean percentage release recovered in the stimulus and post-stimulus, compared with initial basal conditions (pre-stimulus

DOR = target: T3, DOR (Rattus norvegicus, UniProt P33533); assay: Radioligand competition binding with [3H]IleDelt II
T3 construct: a: performed in rat whole brain membrane homogenates; from tissue; host or cells: Wistar rat whole brain membrane homogenate
T3 sequence (P33533 whole entry): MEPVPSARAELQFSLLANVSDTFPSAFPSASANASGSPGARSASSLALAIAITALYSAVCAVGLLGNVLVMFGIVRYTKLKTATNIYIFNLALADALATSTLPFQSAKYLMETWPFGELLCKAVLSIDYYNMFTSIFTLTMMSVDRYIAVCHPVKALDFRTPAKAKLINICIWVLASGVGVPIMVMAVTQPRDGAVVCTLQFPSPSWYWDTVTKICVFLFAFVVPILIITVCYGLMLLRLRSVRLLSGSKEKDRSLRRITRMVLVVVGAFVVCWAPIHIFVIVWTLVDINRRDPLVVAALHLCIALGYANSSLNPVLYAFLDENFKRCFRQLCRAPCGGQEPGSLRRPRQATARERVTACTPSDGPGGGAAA
Protocol: as §1, §2, §3, §4, §5, §6, §7, §8, §9, §10, §11, §12, §13

[3] = rat whole brain membrane homogenates, logarithm of IC50, negative sign printed
[4] = rat whole brain membrane homogenates

Structure (SMILES) | MOR binding affinity in words (MOR) | logIC50 ± S.E.M., [3H]DAMGO (MOR) (MOR; [3]) | logIC50 ± S.E.M., [3H]WIN55,212 (CBR) [1, 3] | effect on dopamine (DA) release [2] | DOR binding affinity in words (DOR) | logIC50 ± S.E.M., [3H]IleDelt II (DOR) (DOR; [3]) | Ki (MOR; [4]) [nM] | IC50 (MOR; [3]) [nM] | Selectivity ratio DOR/MOR (MOR; ratio of Ki values) | Selectivity ratio KOR/MOR (MOR; ratio of Ki values) | CBR / CB1R binding affinity in words [1] | Ki ([1]; rat whole brain membrane homogenates, Cheng-Prusoff, read-out: Ki, [3H]WIN55,212 (CBR)) [nM] | IC50 ([1]; rat whole brain membrane homogenates, logarithm of IC50, negative sign printed, read-out: logIC50 ± S.E.M., [3H]WIN55,212 (CBR) (converted)) [nM] | effect on norepinephrine (NE) release [2] | effect on serotonin (5-HT) release [2] | Ki (DOR; rat whole brain membrane homogenates, Cheng-Prusoff) [nM] | IC50 (DOR; rat whole brain membrane homogenates, logarithm of IC50, negative sign printed, read-out: logIC50 ± S.E.M., [3H]IleDelt II (DOR) (converted)) [nM] | IC50 (DOR) [nM] | Ki (DOR) [nM]
Cc1c(C(=O)NC2CCNCC2)nn(-c2ccc(Cl)cc2Cl)c1-n1cccc1 [Compound 5] | did not bind | ambiguous | ambiguous | decreased | did not bind | ambiguous |  |  |  |  |  |  |  |  |  |  |  |  | 
Cc1c(C(=O)NC2CCN(C(=O)[C@H](Cc3ccccc3)NC(=O)CNC(=O)[C@@H](C)NC(=O)[C@@H](N)Cc3ccc(O)cc3)CC2)nn(-c2ccc(Cl)cc2Cl)c1-n1cccc1 [Compound 9] | loss in affinity |  |  | reduced inhibitory effect | loss in affinity |  | 34.4 | 204 | 12.88 | 4.93 | modest affinity | 5200 | 6030 | significant stimulatory effect | no significant effects | 443 | 1290 |  | 
C[C@@H](NC(=O)[C@@H](N)Cc1ccc(O)cc1)C(=O)NCC(=O)N[C@@H](Cc1ccccc1)C(N)=O [Compound 10, Tyr-D-Ala-Gly-Phe-NH2, reference compound] | high affinity |  | ambiguous | inhibitory effect | high affinity |  | 1 | 6.17 |  |  | did not show any affinity |  |  | significant stimulatory effect | inhibitory effect |  |  | 316 | 107
